Experimental data from ChEMBL document CHEMBL1201862, “PubChem BioAssay data set” (2004).
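96-well plates; 48 h exposure; 5 concentrations. Endpoints by linear interpolation between flanking doses. Not reached: highest tested concentration assigned. At the GI50, growth is halved.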 Active and inactive are the calls of the source. Rule as the data show it: active = GI50 up to about 1.1 µM and inactive = higher.

Columns and labels:
Test in all cases: NCI-60 cell line screen, 48 h
786-0 = test system: 786-0
ACHN = test system: ACHN
HT-29 = test system: HT-29
Hs-578T = test system: Hs-578T
IGROV-1 = test system: IGROV-1
MDA-N = test system: MDA-N
NCI-H460 = test system: NCI-H460
NCI-H522 = test system: NCI-H522
OVCAR-3 = test system: OVCAR-3
OVCAR-8 = test system: OVCAR-8
PC-3 = test system: PC-3
RXF 393 = test system: RXF 393
SF-268 = test system: SF-268
SK-MEL-28 = test system: SK-MEL-28
SK-MEL-5 = test system: SK-MEL-5
SN12C = test system: SN12C
SR = test system: SR
SW-620 = test system: SW-620
UO-31 = test system: UO-31

| SMILES | GI50 (786-0) | GI50 (ACHN) | GI50 (HT-29) | GI50 (Hs-578T) | GI50 (IGROV-1) | GI50 (MDA-N) | GI50 (NCI-H460) | GI50 (NCI-H522) | GI50 (OVCAR-3) | GI50 (OVCAR-8) | GI50 (PC-3) | GI50 (RXF 393) | GI50 (SF-268) | GI50 (SK-MEL-28) | GI50 (SK-MEL-5) | GI50 (SN12C) | GI50 (SR) | GI50 (SW-620) | GI50 (UO-31) |
| --- | --- | --- | --- | --- | --- | --- | --- | --- | --- | --- | --- | --- | --- | --- | --- | --- | --- | --- | --- |
| Cn1c(=O)c2nc(SCc3ccccn3)[nH]c2n(C)c1=S | 67.5 µM (inactive) | > 100 µM (inactive) | > 100 µM (inactive) | > 100 µM (inactive) | > 100 µM (inactive) | > 100 µM (inactive) | > 100 µM (inactive) | > 100 µM (inactive) | > 100 µM (inactive) | 56 µM (inactive) | > 100 µM (inactive) | 32.1 µM (inactive) | > 100 µM (inactive) | > 100 µM (inactive) | > 100 µM (inactive) | 74.1 µM (inactive) | > 100 µM (inactive) | > 100 µM (inactive) | 70.5 µM (inactive) |
| Cc1nccn1S(=O)(=O)c1ccc(Br)cc1Br | 45.7 µM (inactive) | 54.1 µM (inactive) | 29.1 µM (inactive) | 41.1 µM (inactive) | 41.8 µM (inactive) | 20.7 µM (inactive) | 38.4 µM (inactive) | 25.7 µM (inactive) | 22.7 µM (inactive) | 44.4 µM (inactive) | 33 µM (inactive) | 23 µM (inactive) | 37.2 µM (inactive) | 48.9 µM (inactive) | 19.9 µM (inactive) | 29.7 µM (inactive) | 24.7 µM (inactive) | 28.5 µM (inactive) | 22.3 µM (inactive) |
| COc1cc2c(cc1OC)C13CCN4CC5CCOC6CC(=O)N2C1C6C5CC43 (centres undefined) | > 100 µM (inactive) | > 100 µM (inactive) | > 100 µM (inactive) | > 100 µM (inactive) | > 100 µM (inactive) | > 100 µM (inactive) | > 100 µM (inactive) | > 100 µM (inactive) | > 100 µM (inactive) | > 100 µM (inactive) | > 100 µM (inactive) | > 100 µM (inactive) | > 100 µM (inactive) | > 100 µM (inactive) | > 100 µM (inactive) | > 100 µM (inactive) | 2.65 µM (inactive) | > 100 µM (inactive) | > 100 µM (inactive) |
| CC(=O)CC(C)(C)NC(=O)[C@@]1(O)CC[C@H]2[C@@H]3CCC4=CC(=O)CC[C@@H]4[C@H]3CC[C@@]21C | > 100 µM (inactive) | > 100 µM (inactive) | > 100 µM (inactive) | > 100 µM (inactive) | > 100 µM (inactive) | > 100 µM (inactive) | > 100 µM (inactive) | > 100 µM (inactive) | > 100 µM (inactive) | > 100 µM (inactive) | > 100 µM (inactive) | > 100 µM (inactive) | > 100 µM (inactive) | > 100 µM (inactive) | 72.8 µM (inactive) | > 100 µM (inactive) | > 100 µM (inactive) | > 100 µM (inactive) | > 100 µM (inactive) |
| Cc1ccnc2[nH]c(-c3ccccc3)cc(=O)c12 | 0.0124 µM (active) | 0.0458 µM (active) | 0.00361 µM (active) | 0.0114 µM (active) | 0.0726 µM (active) | 0.0011 µM (active) | 0.00682 µM (active) | 0.00838 µM (active) | 0.00583 µM (active) | 0.027 µM (active) | 0.00548 µM (active) | 0.0192 µM (active) | 0.0341 µM (active) | 0.01 µM (active) | 0.00387 µM (active) | 0.0277 µM (active) | 0.00103 µM (active) | 0.00421 µM (active) | 0.0348 µM (active) |
| Cc1cn2c(/C=C3/C(=O)Nc4ccccc43)c(C)nc2s1 | 3.82 µM (inactive) | 6.07 µM (inactive) | 0.605 µM (active) | 1.99 µM (inactive) | 0.634 µM (active) | 0.165 µM (active) | 0.653 µM (active) | 1.32 µM (inactive) | 0.787 µM (active) | 3.54 µM (inactive) | 1.3 µM (inactive) | 2.6 µM (inactive) | 3.98 µM (inactive) | 5.96 µM (inactive) | 0.516 µM (active) | 7.03 µM (inactive) | 0.507 µM (active) | 0.504 µM (active) | 5.6 µM (inactive) |
| CC(C)NCC(O)c1cc(OCc2ccccc2)c(OCc2ccccc2)cc1NC(=O)CCC(=O)O (centres undefined) | 7.52 µM (inactive) | 3.18 µM (inactive) | 3.75 µM (inactive) | 11.6 µM (inactive) | 11.4 µM (inactive) | 2.21 µM (inactive) | 1.85 µM (inactive) | 3.52 µM (inactive) | 13.6 µM (inactive) | 7.66 µM (inactive) | 9.02 µM (inactive) | 5.36 µM (inactive) | 10.1 µM (inactive) | 4.08 µM (inactive) | 2.1 µM (inactive) | 11.7 µM (inactive) | 2.34 µM (inactive) | 2.61 µM (inactive) | 5.77 µM (inactive) |
| C1=N\c2ccc(cc2)-c2ccc(cc2)/N=C\c2ccc(cc2)OCc2cccc(n2)COc2ccc/1cc2 | > 100 µM (inactive) | > 100 µM (inactive) | > 100 µM (inactive) | 18.2 µM (inactive) | > 100 µM (inactive) | > 100 µM (inactive) | > 100 µM (inactive) | 34.5 µM (inactive) | > 100 µM (inactive) | 25.1 µM (inactive) | > 100 µM (inactive) | 42.2 µM (inactive) | 16.1 µM (inactive) | > 100 µM (inactive) | > 100 µM (inactive) | > 100 µM (inactive) | > 100 µM (inactive) | > 100 µM (inactive) | > 100 µM (inactive) |
| O=NN(Cc1ccc(Cl)cc1)C(C(=O)O)c1ccccc1 (centres undefined) | > 100 µM (inactive) | > 100 µM (inactive) | > 100 µM (inactive) | > 100 µM (inactive) | > 100 µM (inactive) | > 100 µM (inactive) | > 100 µM (inactive) | > 100 µM (inactive) | > 100 µM (inactive) | > 100 µM (inactive) | > 100 µM (inactive) | > 100 µM (inactive) | > 100 µM (inactive) | > 100 µM (inactive) | > 100 µM (inactive) | > 100 µM (inactive) | > 100 µM (inactive) | > 100 µM (inactive) | > 100 µM (inactive) |
| Cc1nc(C)c(N2CCNCC2)c(O)n1 | > 100 µM (inactive) | > 100 µM (inactive) | > 100 µM (inactive) | > 100 µM (inactive) | > 100 µM (inactive) | > 100 µM (inactive) | > 100 µM (inactive) | > 100 µM (inactive) | > 100 µM (inactive) | > 100 µM (inactive) | > 100 µM (inactive) | > 100 µM (inactive) | > 100 µM (inactive) | > 100 µM (inactive) | > 100 µM (inactive) | > 100 µM (inactive) | > 100 µM (inactive) | > 100 µM (inactive) | > 100 µM (inactive) |
| COc1cc(C(=O)O)ccc1OS(=O)(=O)O | > 100 µM (inactive) | > 100 µM (inactive) | > 100 µM (inactive) | > 100 µM (inactive) | > 100 µM (inactive) | > 100 µM (inactive) | > 100 µM (inactive) | > 100 µM (inactive) | > 100 µM (inactive) | > 100 µM (inactive) | > 100 µM (inactive) | 30.3 µM (inactive) | > 100 µM (inactive) | > 100 µM (inactive) | > 100 µM (inactive) | > 100 µM (inactive) | > 100 µM (inactive) | > 100 µM (inactive) | > 100 µM (inactive) |
